# Columns and labels:
# [1] = tested on: control sera (pooled serum of ten healthy LUMC hospital workers; commercial negative donor pooled serum from the Dutch bloodbank); assay type: binding, human; set-up: Binding of Control serum LUMC to linear peptides / Binding of Control serum Blood-bank to linear peptides / Binding of Control serum LUMC to looped peptides / Binding of Control Serum Blood-Bank to Looped peptides / Binding of Control serum LUMC to linear peptides of the protein M of SARS-CoV Urbani / Binding of Control serum Blood-bank to linear peptides of the protein M of SARS-CoV Urbani / Binding of Control serum LUMC to looped peptides of the protein M of SARS-CoV Urbani / Binding of Control Serum Blood-Bank to Looped peptides of the protein M of SARS-CoV Urbani: unit not given here
# [2] = tested on: rabbit serum obtained by immunizing a rabbit with the SARS-CoV strain Frankfurt 1; assay type: binding; set-up: Binding of a rabbit serum to linear peptides / Binding of a rabbit serum to looped peptides / Rabbit serum linear peptides / Rabbit serum looped peptides / Binding of a rabbit serum to linear peptides of protein N of SARS-CoV Urbani (Rabbit serum linear peptides) / Binding of a rabbit serum to looped/cyclic peptides of protein N of SARS-CoV Urbani (Rabbit serum looped peptides): unit not given here
# [3] = tested on: antibodies in sera from SARS patients (sera 1a, 1b, 2, 6, 37, 62, London, SARS-yellow, SARS-green); assay type: binding, human; set-up: Binding of serum 6 to linear peptides of protein X1 of SARS-CoV Urbani / Binding of serum 37 to linear peptides of protein X1 of SARS-CoV Urbani / Binding of serum 6 to looped/cyclic peptide (PEPSCAN-ELISA) / Binding of serum 37 to looped/cyclic peptide (PEPSCAN-ELISA) / Binding of serum 37 to looped/cyclic peptides of protein X1 of SARS-CoV Urbani / Binding of serum 6 to linear peptides of protein X2 / Binding of serum 37 to linear peptides of protein X2 / Binding of serum 37 to looped/cyclic peptides of protein X2 of SARS-CoV Urbani / Binding of serum 6 to linear peptides of protein M of SARS-CoV Urbani / Binding of serum 37 to linear peptides of protein M of SARS-CoV Urbani / Binding of serum 6 to looped/cyclic peptides of protein M of SARS-CoV Urbani / Binding of serum 37 to looped/cyclic peptides of protein M of SARS-CoV Urbani / Binding of serum 6 to linear peptides of protein X3 of SARS-CoV Urbani / Binding of serum 37 to linear peptides of protein X3 of SARS-CoV Urbani / Binding of serum 37 to looped/cyclic peptides of protein X3 of SARS-CoV Urbani / Binding of serum 6 to linear peptides of protein X4 of SARS-CoV Urbani / Binding of serum 37 to linear peptides of protein X4 of SARS-CoV Urbani / Binding of serum 37 to looped/cyclic peptides of protein X4 of SARS-CoV Urbani / Binding of serum 6 to linear peptides of protein X5 of SARS-CoV Urbani / Binding of serum 37 to linear peptides of protein X5 of SARS-CoV Urbani / Binding of serum 37 to looped/cyclic peptides of protein X5 of SARS-CoV Urbani / Binding of serum 6 to linear peptides of protein N of SARS-CoV Urbani / Binding of serum 37 to linear peptides of protein N of SARS-CoV Urbani / Binding of serum 6 to linear peptide (PEPSCAN-ELISA) / Binding of serum 1a to looped/cyclic peptides of protein N of SARS-CoV Urbani / Binding of serum 1b to looped/cyclic peptides of protein N of SARS-CoV Urbani / Binding of serum 2 to looped/cyclic peptides of protein N of SARS-CoV Urbani / Binding of serum 6 to looped/cyclic peptides of protein N of SARS-CoV Urbani / Binding of serum 37 to looped/cyclic peptides of protein N of SARS-CoV Urbani / Binding of serum 62 to looped/cyclic peptides of protein N of SARS-CoV Urbani / Binding of serum London to looped/cyclic peptides of protein N of SARS-CoV Urbani / Binding of serum SARS-green to looped/cyclic peptides of protein N of SARS-CoV Urbani: unit not given here
Sequence,Binding of Control Serum Blood-Bank to Looped peptides [1],Binding of Control serum Blood-bank to linear peptides [1],Binding of Control serum LUMC to linear peptides [1],Binding of Control serum LUMC to looped peptides [1],Rabbit serum linear peptides [2],Rabbit serum looped peptides [2],Binding of a rabbit serum to linear peptides [2],Binding of a rabbit serum to looped peptides [2],Binding of serum 1a to linear peptides of protein X2 [3],Binding of serum 1a to looped/cyclic peptides of protein X2 of SARS-CoV Urbani [3],Binding of serum 1b to linear peptides of protein X2 [3],Binding of serum 1b to looped/cyclic peptides of protein X2 of SARS-CoV Urbani [3],Binding of serum 2 to linear peptides of protein X2 [3],Binding of serum 2 to looped/cyclic peptides of protein X2 of SARS-CoV Urbani [3],Binding of serum 6 to looped/cyclic peptides of protein X2 of SARS-CoV Urbani [3],Binding of serum 37 to looped/cyclic peptides of protein X2 of SARS-CoV Urbani [3],Binding of serum 62 to looped/cyclic peptides of protein X2 of SARS-CoV Urbani [3],Binding of serum London to looped/cyclic peptides of protein X2 of SARS-CoV Urbani [3],Binding of serum SARS-green to looped/cyclic peptides of protein X2 of SARS-CoV Urbani [3],Binding of serum SARS-yellow to looped/cyclic peptides of protein X2 of SARS-CoV Urbani [3],also measured
KLFIRQEEVQQELYS,0.8,0.5,0.5,0.8,0.5,0.5,,,,,,,,,,,,,,,Binding of serum 1a to linear peptides of protein X4 of SARS-CoV Urbani [3]: 0.7; Binding of serum 1a to looped/cyclic peptides of protein X4 of SARS-CoV Urbani [3]: 0.7; Binding of serum 1b to linear peptides of protein X4 of SARS-CoV Urbani [3]: 0.5; Binding of serum 1b to looped/cyclic peptides of protein X4 of SARS-CoV Urbani [3]: 0.6; Binding of serum 2 to linear peptides of protein X4 of SARS-CoV Urbani [3]: 0.4; Binding of serum 2 to looped/cyclic peptides of protein X4 of SARS-CoV Urbani [3]: 0.6; Binding of serum 6 to linear peptides of protein X4 of SARS-CoV Urbani [3]: 0.5; Binding of serum 6 to looped/cyclic peptides of protein X4 of SARS-CoV Urbani [3]: 0.4; Binding of serum 37 to linear peptides of protein X4 of SARS-CoV Urbani [3]: 0.7; Binding of serum 37 to looped/cyclic peptides of protein X4 of SARS-CoV Urbani [3]: 0.7; Binding of serum 62 to linear peptides of protein X4 of SARS-CoV Urbani [3]: 0.8; Binding of serum 62 to looped/cyclic peptides of protein X4 of SARS-CoV Urbani [3]: 0.6; Binding of serum London to linear peptides of protein X4 of SARS-CoV Urbani [3]: 0.7; Binding of serum London to looped/cyclic peptides of protein X4 of SARS-CoV Urbani [3]: 0.3; Binding of serum SARS-green to linear peptides of protein X4 of SARS-CoV Urbani [3]: 0.6; Binding of serum SARS-green to looped/cyclic peptides of protein X4 of SARS-CoV Urbani [3]: 0.8; Binding of serum SARS-yellow to linear peptides of protein X4 of SARS-CoV Urbani [3]: 0.4; Binding of serum SARS-yellow to looped/cyclic peptides of protein X4 of SARS-CoV Urbani [3]: 0.6
KLLQTLVLKMLHSSS,0.7,0.7,0.3,0.6,,,0.2,0.4,0.6,0.5,0.6,0.5,0.4,0.3,0.5,0.4,0.6,0.4,0.3,0.4,Binding of serum 6 to linear peptides of protein X2 [3]: 0.3; Binding of serum 37 to linear peptides of protein X2 [3]: 0.5; Binding of serum 62 to linear peptides of protein X2 [3]: 0.6; Binding of serum London to linear peptides of protein X2 [3]: 0.4; Binding of serum SARS-green to linear peptides of protein X2 [3]: 0.5; Binding of serum SARS-yellow to linear peptides of protein X2 [3]: 0.4
KNPLLYDANYFVCWH,0.6,0.4,0.4,0.7,,,0.1,0.7,,,,,,,,,,,,,Binding of serum 1a to linear peptides of protein X1 of SARS-CoV Urbani [3]: 0.8; Binding of serum 1a to looped/cyclic peptide (PEPSCAN-ELISA) [3]: 0.6; Binding of serum 1b to linear peptides of protein X1 of SARS-CoV Urbani [3]: 0.5; Binding of serum 1b to looped/cyclic peptide (PEPSCAN-ELISA) [3]: 0.5; Binding of serum 2 to linear peptides of protein X1 of SARS-CoV Urbani [3]: 0.5; Binding of serum 2 to looped/cyclic peptide (PEPSCAN-ELISA) [3]: 0.4; Binding of serum 6 to linear peptides of protein X1 of SARS-CoV Urbani [3]: 0.4; Binding of serum 6 to looped/cyclic peptide (PEPSCAN-ELISA) [3]: 0.4; Binding of serum 37 to linear peptides of protein X1 of SARS-CoV Urbani [3]: 0.6; Binding of serum 37 to looped/cyclic peptide (PEPSCAN-ELISA) [3]: 0.6; Binding of serum 62 to linear peptides of protein X1 of SARS-CoV Urbani [3]: 0.5; Binding of serum 62 to looped/cyclic peptide (PEPSCAN-ELISA) [3]: 0.6; Binding of serum London to linear peptides of protein X1 of SARS-CoV Urbani [3]: 0.3; Binding of serum London to looped/cyclic peptide (PEPSCAN-ELISA) [3]: 0.2; Binding of serum SARS-green to linear peptides of protein X1 of SARS-CoV Urbani [3]: 0.4; Binding of serum SARS-green to looped/cyclic peptide (PEPSCAN-ELISA) [3]: 0.3; Binding of serum SARS-yellow to linear peptides of protein X1 of SARS-CoV Urbani [3]: 0.3; Binding of serum SARS-yellow to looped/cyclic peptide (PEPSCAN-ELISA) [3]: 0.4
KTHRMCKYTQSTALQ,0.5,0.6,0.5,0.4,,,0.3,0.3,0.7,0.4,0.5,0.4,0.6,0.2,0.4,0.2,0.4,0.2,0.2,0.2,Binding of serum 6 to linear peptides of protein X2 [3]: 0.5; Binding of serum 37 to linear peptides of protein X2 [3]: 0.7; Binding of serum 62 to linear peptides of protein X2 [3]: 0.6; Binding of serum London to linear peptides of protein X2 [3]: 0.5; Binding of serum SARS-green to linear peptides of protein X2 [3]: 0.5; Binding of serum SARS-yellow to linear peptides of protein X2 [3]: 0.8
KVLPFHRWHTMVQTC,0.6,0.6,0.4,0.5,0.6,0.5,,,,,,,,,,,,,,,Binding of serum 1a to linear peptides of protein X5 of SARS-CoV Urbani [3]: 0.9; Binding of serum 1a to looped/cyclic peptides of protein X5 of SARS-CoV Urbani [3]: 0.7; Binding of serum 1b to linear peptides of protein X5 of SARS-CoV Urbani [3]: 0.6; Binding of serum 1b to looped/cyclic peptides of protein X5 of SARS-CoV Urbani [3]: 0.7; Binding of serum 2 to linear peptides of protein X5 of SARS-CoV Urbani [3]: 0.7; Binding of serum 2 to looped/cyclic peptides of protein X5 of SARS-CoV Urbani [3]: 0.6; Binding of serum 6 to linear peptides of protein X5 of SARS-CoV Urbani [3]: 0.5; Binding of serum 6 to looped/cyclic peptides of protein X5 of SARS-CoV Urbani [3]: 0.7; Binding of serum 37 to linear peptides of protein X5 of SARS-CoV Urbani [3]: 0.7; Binding of serum 37 to looped/cyclic peptides of protein X5 of SARS-CoV Urbani [3]: 0.6; Binding of serum 62 to linear peptides of protein X5 of SARS-CoV Urbani [3]: 0.7; Binding of serum 62 to looped/cyclic peptides of protein X5 of SARS-CoV Urbani [3]: 0.6; Binding of serum London to linear peptides of protein X5 of SARS-CoV Urbani [3]: 1.2; Binding of serum London to looped/cyclic peptides of protein X5 of SARS-CoV Urbani [3]: 0.4; Binding of serum SARS-green to linear peptides of protein X5 of SARS-CoV Urbani [3]: 0.6; Binding of serum SARS-green to looped/cyclic peptides of protein X5 of SARS-CoV Urbani [3]: 0.4; Binding of serum SARS-yellow to linear peptides of protein X5 of SARS-CoV Urbani [3]: 0.2; Binding of serum SARS-yellow to looped/cyclic peptides of protein X5 of SARS-CoV Urbani [3]: 0.3
KVSTNLCTHSFRKKQ,0.4,1.0,0.8,0.7,,,0.3,0.1,,0.4,,0.3,,0.5,0.5,0.4,0.6,0.2,0.3,0.5,"Recognition of the peptide by sera of SARS-CoV infected individuals, and form (linear, looped/cyclic) in which it is recognized [3]: recognized in linear form"
